From patent US11339156B2, “3-(1H-pyrazol-4-yl)pyridine allosteric modulators of the M4 muscarinic acetylcholine receptor” (Merck Sharp & Dohme Corp., priority 2017, dated 2022)

Biological target: T1, human M4 muscarinic acetylcholine receptor (Homo sapiens, UniProt P08173)
T1 construct: expressed in transfected cells
T1 sequence (P08173 1-479): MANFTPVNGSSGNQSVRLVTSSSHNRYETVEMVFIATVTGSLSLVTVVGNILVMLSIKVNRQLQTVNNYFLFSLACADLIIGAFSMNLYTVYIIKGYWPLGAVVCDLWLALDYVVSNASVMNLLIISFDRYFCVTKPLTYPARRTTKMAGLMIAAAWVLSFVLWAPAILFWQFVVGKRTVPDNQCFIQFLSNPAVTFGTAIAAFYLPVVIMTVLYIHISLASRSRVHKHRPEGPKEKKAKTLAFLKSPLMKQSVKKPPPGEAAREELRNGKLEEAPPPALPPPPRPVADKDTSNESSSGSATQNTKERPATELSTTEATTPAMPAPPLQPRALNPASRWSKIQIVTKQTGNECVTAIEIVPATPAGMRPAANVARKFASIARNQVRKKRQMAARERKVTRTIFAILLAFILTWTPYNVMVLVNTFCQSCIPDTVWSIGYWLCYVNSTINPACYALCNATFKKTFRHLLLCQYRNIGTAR
Experiment: human FLIPR-based M4 PAM assay (CHO-K1 cells with human M4 receptor and Gαqi5, calcium dye fluorescence)
Type: cell-based
Settings: inflection point of 4 parameter logistic fit; acetylcholine added at 20% of maximum response; read-out: M4PAM IP
Protocol: In a typical experiment the M4 muscarinic acetylcholine receptor modulating activity of the compounds of the present invention was determined in accordance with the following experimental method. CHO-K1 cells stably transfected with human M4 receptor and chimeric G-protein Gαqi5 (Coward P, et al., Analytical Biochemistry, 270:242-248 (1999)) are thawed from liquid N2 storage, resuspended in growth medium, plated in black, clear bottom 384 well plates, and incubated 16-20 hours at 37° C., 5% CO2. On the day of assay, growth medium is removed, the cells are washed 2 times with wash buffer, and cells are incubated in dye loading buffer at 37° C., 5% CO2 for ˜1 hour. Following dye loading the cell plates are placed in a FLIPR Tetra instrument and while monitoring dye fluorescence (excitation […]), 10 uL of test substance at increasing concentrations is added, and fluorescence values are recorded for 4 min. Next, 10 uL of acetylcholine is added (final concentration calculated so as to achieve 20% of the maximum acetycholine response), and the fluorescence reading is continued for 3.5 min. In some cases, a third addition of acetylcholine (final concentration calculated to achieve 70% of the maximal acetylcholine response) is performed. The resulting dose response curves are fit to a 4 parameter logistic equation and the final result is determined as the inflection point (IP) of the curve
CHO-K1 cells stably transfected with human M4 receptor and chimeric G-protein Gαqi5 are thawed from liquid N2 storage, resuspended in growth medium, plated in black, clear bottom 384 well plates, and incubated 16-20 hours at 37° C., 5% CO2.
On the day of assay, growth medium is removed, the cells are washed 2 times with wash buffer, and cells are incubated in dye loading buffer at 37° C., 5% CO2 for ˜1 h. Following dye loading the cell plates are placed in a FLIPR Tetra instrument and while monitoring dye fluorescence ([…]), 10 uL of test substance at increasing concentrations is added, and fluorescence values are recorded for 4 min. Next, 10 uL of acetylcholine is added (final concentration calculated so as to achieve 20% of the maximum acetycholine response), and the fluorescence reading is continued for 3.5 min. In some cases, a third addition of acetylcholine (final concentration calculated to achieve 70% of the maximal acetylcholine response) is performed.

Row | Structure (SMILES) | EC50
1 | Cc1nc2cc(-c3nc(C#N)ccc3-c3cnn(CC(C)(C)C(C)(F)F)c3)ccc2n1C [Example 28, 5-[1-(3,3-difluoro-2,2-dimethylbutyl)-1H-pyrazol-4-yl]-6-(1,2-dimethyl-1H-benzimidazol-5-yl)pyridine-2-carbonitrile] | 67.4 nM
2 | Cc1cn2ccc(-c3nc(C#N)ccc3-c3cnn(CCC(F)(F)C(F)(F)F)c3)cc2n1 [Example 29, 6-(2-methylimidazo[1,2-a]pyridin-7-yl)-5-[1-(3,3,4,4,4-pentafluorobutyl)-1H-pyrazol-4-yl]pyridine-2-carbonitrile] | 96.9 nM
3 | Cc1nc2cc(-c3nc(C#N)ccc3-c3cnn(CCC(F)(F)C(F)F)c3)ccc2n1C [Example 30, 6-(1,2-dimethyl-1H-benzimidazol-5-yl)-5-[1-(3,3,4,4-tetrafluorobutyl)-1H-pyrazol-4-yl]pyridine-2-carbonitrile] | 102 nM
4 | Cc1nc2cc(-c3nc(C#N)ccc3-c3cnn(CC(C)(F)F)c3)ccc2n1C [Example 31, 5-[1-(2,2-difluoropropyl)-1H-pyrazol-4-yl]-6-(1,2-dimethyl-1H-benzimidazol-5-yl)pyridine-2-carbonitrile] | 163 nM
5 | Cc1nc2cc(-c3nc(C#N)ccc3-c3cnn(CC(F)C(C)(F)F)c3)ccc2n1C (stereo not drawn) [Example 32, 6-(1,2-dimethyl-1H-benzimidazol-5-yl)-5-[1-(2,3,3-trifluorobutyl)-1H-pyrazol-4-yl]pyridine-2-carbonitrile] | 81.9 nM
6 | Cc1nc2cc(-c3nc(C#N)ccc3-c3cnn(CC(C)(F)C(C)(F)F)c3)ccc2n1C (stereo not drawn) [Example 33, 6-(1,2-dimethyl-1H-benzimidazol-5-yl)-5-[1-(2,3,3-trifluoro-2-methylbutyl)-1H-pyrazol-4-yl]pyridine-2-carbonitrile] | 51 nM
7 | Cc1nc2cc(-c3nc(C#N)ccc3-c3cnn(CC(C)(C)CC(F)F)c3)ccc2n1C [Example 34, 5-[1-(4,4-difluoro-2,2-dimethylbutyl)-1H-pyrazol-4-yl]-6-(1,2-dimethyl-1H-benzimidazol-5-yl)pyridine-2-carbonitrile] | 54.2 nM
8 | Cc1cn2ccc(-c3nc(C#N)ccc3-c3cnn(CC4(CC(C)C)CC4)c3)cc2n1 [Example 35, 6-(2-methylimidazo[1,2-a]pyridin-7-yl)-5-(1-{[1-(2-methylpropyl)cyclo-propyl]methyl}-1H-pyrazol-4-yl)pyridine-2-carbonitrile] | 108 nM
9 | CC(C)C1(Cn2cc(-c3ccc(C#N)nc3-c3ccn4ccnc4c3)cn2)CC1 [Example 36, 6-imidazo[1,2-a]pyridin-7-yl-5-(1-{[1-(1-methylethyl)cyclo-propyl]methyl}-1H-pyrazol-4-yl)pyridine-2-carbonitrile] | 37.4 nM
10 | CCC1(Cn2cc(-c3ccc(C#N)nc3-c3ccn4ccnc4c3)cn2)CC1 [Example 37, 5-{1-[(1-ethylcyclopropyl)methyl]-1H-pyrazol-4-yl}-6-imidazo[1,2-a]pyridin-7-ylpyridine-2-carbonitrile] | 14.5 nM
11 | Cn1cnc2cc(-c3nc(C#N)ccc3-c3cnn(CC4(C)CCOCC4)c3)ccc21 [Example 38, 6-(1-methyl-1H-benzimidazol-5-yl)-5-{1-[(4-methyltetrahydro-2H-pyran-4-yl)methyl]-1H-pyrazol-4-yl}pyridine-2-carbonitrile] | 165 nM
12 | Cc1cn2ncc(-c3nc(C#N)ccc3-c3cnn(CC(C)(C)C(F)(F)F)c3)cc2n1 [Example 39, 6-(2-methylimidazo[1,2-b]pyridazin-7-yl)-5-[1-(3,3,3-trifluoro-2,2-dimethylpropyl)-1H-pyrazol-4-yl]pyridine-2-carbonitrile] | 75.8 nM
13 | Cc1cn2ccc(-c3nc(C#N)ccc3-c3cnn(CCC(F)(F)F)c3)cc2n1 [Example 40, 6-(2-methylimidazo[1,2-a]pyridin-7-yl)-5-[1-(3,3,3-trifluoropropyl)-1H-pyrazol-4-yl]pyridine-2-carbonitrile] | 141 nM
14 | Cc1cn2ccc(-c3nc(C#N)ccc3-c3cnn(CC(F)C(F)(F)F)c3)cc2n1 (stereo not drawn) [Example 41, 6-(2-methylimidazo[1,2-a]pyridin-7-yl)-5-[1-(2,3,3,3-tetrafluoropropyl)-1H-pyrazol-4-yl]pyridine-2-carbonitrile] | 62.2 nM
15 | N#Cc1ccc(-c2cnn(CC(F)(F)C(F)(F)F)c2)c(-c2ccn3ccnc3c2)n1 [Example 42, 6-imidazo[1,2-a]pyridin-7-yl-5-[1-(2,2,3,3,3-pentafluoropropyl)-1H-pyrazol-4-yl]pyridine-2-carbonitrile] | 151 nM
16 | Cc1cn2ccc(-c3nc(C#N)ccc3-c3cnn(CCC(O)C(F)(F)F)c3)cc2n1 (stereo not drawn) [Example 43, 6-(2-methylimidazo[1,2-a]pyridin-7-yl)-5-[1-(4,4,4-trifluoro-3-hydroxybutyl)-1H-pyrazol-4-yl]pyridine-2-carbonitrile] | 88.3 nM
17 | CC(C)(Cn1cc(-c2ccc(C#N)nc2-c2ccn3ccnc3c2)cn1)C(F)(F)F [Example 44, 6-(imidazo[1,2-a]pyridin-7-yl)-5-(1-(3,3,3-trifluoro-2,2-dimethylpropyl)-1H-pyrazol-4-yl)picolinonitrile] | 28.4 nM
18 | N#Cc1ccc(-c2cnn(CCC3CC3)c2)c(-c2ccn3ccnc3c2)n1 [Example 45, 5-[1-(2-cyclopropylethyl)-1H-pyrazol-4-yl]-6-imidazo[1,2-a]pyridin-7-ylpyridine-2-carbonitrile] | 35.6 nM
19 | CC(C)(C#N)Cn1cc(-c2ccc(C#N)nc2-c2ccn3ccnc3c2)cn1 [Example 46, 5-[1-(2-cyano-2-methylpropyl)-1H-pyrazol-4-yl]-6-imidazo[1,2-a]pyridin-7-ylpyridine-2-carbonitrile] | 242 nM
20 | CC(C)(C)Cn1cc(-c2ccc(C#N)nc2-c2ccn3ccnc3c2)cn1 [Example 48, 5-[1-(2,2-dimethylpropyl)-1H-pyrazol-4-yl]-6-imidazo[1,2-a]pyridin-7-ylpyridine-2-carbonitrile] | 29.7 nM
21 | Cc1cn2ccc(-c3nc(C#N)ccc3-c3cnn(CCC(C)(C)C#N)c3)cc2n1 [Example 49, 5-[1-(3-cyano-3-methylbutyl)-1H-pyrazol-4-yl]-6-(2-methylimidazo[1,2-a]pyridin-7-yl)pyridine-2-carbonitrile] | 174 nM
22 | CN1Cc2ccc(-c3nc(C#N)ccc3-c3cnn(CC4(C)CC4)c3)cc2C1=O [Example 50, 5-{1-[(1-methylcyclopropyl)methyl]-1H-pyrazol-4-yl}-6-(2-methyl-3-oxo-2,3-dihydro-1H-isoindol-5-yl)pyridine-2-carbonitrile] | 51.2 nM
23 | N#Cc1ccc(-c2cnn(CC3CC34CC4)c2)c(-c2ccn3ccnc3c2)n1 (stereo not drawn) [Example 51, 6-imidazo[1,2-a]pyridin-7-yl-5-[1-(spiro[2.2]pent-1-ylmethyl)-1H-pyrazol-4-yl]pyridine-2-carbonitrile] | 54.6 nM
24 | CN1Cc2ccc(-c3nc(C#N)ccc3-c3cnn(CC4(C(F)(F)F)CC4)c3)cc2C1=O [Example 52, 6-(2-methyl-3-oxoisoindolin-5-yl)-5-(1-((1-(trifluoromethyl)cyclopropyl)methyl)-1H-pyrazol-4-yl)picolinonitrile] | 20.7 nM
25 | Fc1cc(-c2cnn(CC3(C(F)(F)F)CC3)c2)c(-c2ccn3ccnc3c2)nc1F [Example 53, 7-(5,6-difluoro-3-(1-((1-(trifluoromethyl)cyclopropyl)methyl)-1H-pyrazol-4-yl)pyridin-2-yl)imidazo[1,2-a]pyridine] | 234 nM
26 | CN1Cc2ccc(-c3nc(C#N)c(F)cc3-c3cnn(CC4(C(F)(F)F)CC4)c3)cc2C1=O [Example 54, 3-fluoro-6-(2-methyl-3-oxo-2,3-dihydro-1H-isoindol-5-yl)-5-(1-{[1-(trifluoromethyl)cyclo-propyl]methyl}-1H-pyrazol-4-yl)pyridine-2-carbonitrile] | 44.7 nM
27 | Cc1nc2cc(-c3nc(C#N)ccc3-c3cnn(CC4(C(F)(F)F)CC4)c3)ccc2o1 [Example 55, 6-(2-methyl-1,3-benzoxazol-5-yl)-5-(1-{[1-(trifluoromethyl)cyclo-propyl]methyl}-1H-pyrazol-4-yl)pyridine-2-carbonitrile] | 176 nM
